Experiments:
Type in all cases: functional
CCRF-CEM = test: Antiproliferative activity against human CCRF-CEM cells
RXF 393 = test: Antiproliferative activity against human RXF393 cells
SNB-75 = test: Antiproliferative activity against human SNB75 cells
SF-295 = test: Antiproliferative activity against human SF295 cells
PC-3 = test: Antiproliferative activity against human PC3 cells
786-0 = test: Antiproliferative activity against human 786-0 cells
HCT-116 = test: Antiproliferative activity against human HCT116 cells
[1] = Antiproliferative activity against human […] cells
SF-539 = test: Antiproliferative activity against human SF539 cells
CAKI-1 = test: Antiproliferative activity against human CAKI-1 cells
UACC-62 = test: Antiproliferative activity against human UACC62 cells
HL-60 = test: Antiproliferative activity against human HL60 cells
HOP-92 = test: Antiproliferative activity against human HOP92 cells; conditions: for TGI: read-out: pTGI (converted)
EKVX = test: Antiproliferative activity against human EKVX cells
DU-145 = test: Antiproliferative activity against human DU145 cells
UO-31 = test: Antiproliferative activity against human UO31 cells
Hs-578T = test: Antiproliferative activity against human HS578T cells
MOLT-4 = test: Antiproliferative activity against human MOLT4 cells
LOX IMVI = test: Antiproliferative activity against human LOX IMVI cells; conditions: for TGI: read-out: pTGI (converted)
SK-MEL-5 = test: Antiproliferative activity against human SK-MEL-5 cells
RPMI-8226 = test: Antiproliferative activity against human RPMI8226 cells
HCT-15 = test: Antiproliferative activity against human HCT15 cells
SR = test: Antiproliferative activity against human SR cells; conditions: for TGI: read-out: pTGI (converted)

| GI50 (CCRF-CEM) | GI50 (PC-3) | GI50 (786-0) | GI50 (HCT-116) | GI50 (HL-60) | GI50 (DU-145) | GI50 (MOLT-4) | GI50 (SK-MEL-5) | GI50 (RPMI-8226) | GI50 (HCT-15) | Compound | GI50 (SNB-75) | GI50 (SF-295) | GI50 [1] | GI50 (SF-539) | GI50 (CAKI-1) | GI50 (UACC-62) | GI50 (HOP-92) | GI50 (EKVX) | GI50 (UO-31) | GI50 (Hs-578T) | other results |
| --- | --- | --- | --- | --- | --- | --- | --- | --- | --- | --- | --- | --- | --- | --- | --- | --- | --- | --- | --- | --- | --- |
| 0.631 µM | 50.1 µM | 25.1 µM | 25.1 µM | > 100 µM | 31.6 µM | > 100 µM | 25.1 µM | 5.01 µM | > 100 µM | COc1ccc(-n2cc(-c3cc(OC)c(OC)c(OC)c3)[nH]c2=S)cc1Cl | 20 µM | 39.8 µM | 31.6 µM | 20 µM | 5.01 µM | > 100 µM | 31.6 µM | 39.8 µM | 39.8 µM | 15.8 µM | GI50 (RXF 393): 15.8 µM; GI50 (LOX IMVI): 6.31 µM |
| 0.1 µM | 0.0316 µM | 0.0199 µM | 0.0316 µM |  | 0.01 µM | 0.1 µM | 0.01 µM | 0.158 µM | 0.0316 µM | COc1ccc(/C=C\c2cc(OC)c(OC)c(OC)c2)cc1O [COMBRETASTATIN A4] | 0.794 µM | 0.0631 µM | 50.1 µM | 0.0398 µM | 0.0398 µM | 0.01 µM | 0.2 µM | 0.398 µM | 0.2 µM | 0.158 µM | GI50 (RXF 393): 0.794 µM; TGI (HOP-92): 39.8 µM; GI50 (SR): 0.126 µM; TGI (SR): 79.4 µM; GI50 (LOX IMVI): 0.01 µM; TGI (LOX IMVI): 12.6 µM |
| > 100 µM | > 100 µM | 25.1 µM | > 100 µM | > 100 µM |  | > 100 µM | > 100 µM | > 100 µM | > 100 µM | COc1ccc(-n2cc(-c3cc(OC)c(OC)c(OC)c3)[nH]c2=O)cc1Cl | 6.31 µM | 39.8 µM | > 100 µM | 31.6 µM | > 100 µM | 50.1 µM | 15.8 µM | > 100 µM | > 100 µM | 31.6 µM | GI50 (SR): 50.1 µM; GI50 (LOX IMVI): > 100 µM |
| < 0.01 µM | 15.8 µM | 15.8 µM | 31.6 µM | > 100 µM | 63.1 µM | > 100 µM | 31.6 µM | 12.6 µM | > 100 µM | COc1cc(-n2cc(-c3ccc(Cl)cc3)[nH]c2=O)cc(OC)c1OC | 25.1 µM | 31.6 µM |  | 25.1 µM | 15.8 µM | 25.1 µM |  | 31.6 µM | 20 µM | 79.4 µM | GI50 (SR): > 100 µM; GI50 (LOX IMVI): 63.1 µM |
|  | 39.8 µM | 25.1 µM | 63.1 µM | 63.1 µM | 1.58 µM | > 100 µM | 39.8 µM | > 100 µM | 79.4 µM | COc1cc(-n2cc(-c3ccccc3)[nH]c2=O)cc(OC)c1OC | 12.6 µM | 39.8 µM | 31.6 µM | 20 µM | 39.8 µM | 39.8 µM | 20 µM | 25.1 µM | 39.8 µM | 31.6 µM | GI50 (SR): > 100 µM; GI50 (LOX IMVI): > 100 µM |
| > 100 µM | > 100 µM | > 100 µM | > 100 µM | 39.8 µM | > 100 µM | 1.58 µM | 63.1 µM | > 100 µM | > 100 µM | COc1ccc(-c2cn(-c3ccc(OC)c(OC)c3)c(=O)[nH]2)cc1 | 25.1 µM | > 100 µM | 50.1 µM | > 100 µM | > 100 µM | > 100 µM | > 100 µM | > 100 µM | > 100 µM | > 100 µM | GI50 (SR): 0.1 µM; TGI (SR): 0.631 µM; GI50 (LOX IMVI): > 100 µM |
| 63.1 µM | 31.6 µM | 20 µM | 50.1 µM | > 100 µM | 39.8 µM | 39.8 µM | 39.8 µM | 50.1 µM | > 100 µM | COc1ccc(-n2cc(-c3ccc(Cl)cc3)[nH]c2=S)cc1Cl | 20 µM | 25.1 µM | 20 µM | 20 µM | 25.1 µM | 79.4 µM | 15.8 µM | 39.8 µM | 20 µM | 25.1 µM | GI50 (RXF 393): 25.1 µM; GI50 (LOX IMVI): 100 µM |
| > 100 µM | > 100 µM | > 100 µM | > 100 µM | 0.398 µM | > 100 µM | 0.0199 µM | > 100 µM | > 100 µM | > 100 µM | COc1cc(-c2cn(-c3ccc(Cl)cc3)c(=O)[nH]2)cc(OC)c1OC | > 100 µM | > 100 µM | > 100 µM | > 100 µM | > 100 µM | > 100 µM | > 100 µM | > 100 µM | > 100 µM | > 100 µM | GI50 (RXF 393): > 100 µM; GI50 (SR): 0.0316 µM; TGI (SR): 39.8 µM |
| > 100 µM | > 100 µM | > 100 µM | > 100 µM | > 100 µM | > 100 µM | 6.31 µM | > 100 µM | > 100 µM | > 100 µM | COc1ccc(-n2cc(-c3cc(OC)c(OC)c(OC)c3)[nH]c2=S)cc1OC | 63.1 µM | > 100 µM | > 100 µM | > 100 µM | > 100 µM | > 100 µM | > 100 µM | > 100 µM | > 100 µM | > 100 µM | GI50 (RXF 393): > 100 µM; GI50 (SR): 2.51 µM; TGI (SR): 7.94 µM; GI50 (LOX IMVI): > 100 µM |
| 39.8 µM | 63.1 µM | 20 µM | 15.8 µM | 31.6 µM | 31.6 µM | 20 µM | 39.8 µM | 63.1 µM | > 100 µM | O=c1[nH]c(-c2ccc(Cl)c(Cl)c2)cn1-c1ccc(Cl)cc1 | 20 µM | 25.1 µM | 25.1 µM | 20 µM | 25.1 µM | 25.1 µM | 15.8 µM | 31.6 µM | 25.1 µM | 15.8 µM | GI50 (RXF 393): 31.6 µM; GI50 (SR): 5.01 µM; TGI (SR): 15.8 µM; GI50 (LOX IMVI): 39.8 µM |
| > 100 µM | > 100 µM | 50.1 µM | > 100 µM | > 100 µM | > 100 µM | 79.4 µM | > 100 µM | > 100 µM | > 100 µM | COc1ccc(-n2cc(-c3ccc(OC)c(OC)c3)[nH]c2=S)cc1Cl | 5.01 µM | 39.8 µM | > 100 µM | 39.8 µM | > 100 µM | > 100 µM | 39.8 µM | 39.8 µM | > 100 µM | 39.8 µM | GI50 (SR): > 100 µM; GI50 (LOX IMVI): > 100 µM |

| Compound | GI50 (CCRF-CEM) | GI50 (PC-3) | GI50 (786-0) | GI50 (HCT-116) | GI50 (HL-60) | GI50 (DU-145) | GI50 (MOLT-4) | GI50 (SK-MEL-5) | GI50 (RPMI-8226) | GI50 (HCT-15) | GI50 (SNB-75) | GI50 (SF-295) | GI50 [1] | GI50 (SF-539) | GI50 (CAKI-1) | GI50 (UACC-62) | GI50 (HOP-92) | GI50 (EKVX) | GI50 (UO-31) | GI50 (Hs-578T) | other results |
| --- | --- | --- | --- | --- | --- | --- | --- | --- | --- | --- | --- | --- | --- | --- | --- | --- | --- | --- | --- | --- | --- |
| COc1ccc(-c2cn(-c3ccc(Cl)cc3)c(=S)[nH]2)cc1OC | > 100 µM | 63.1 µM | 6.31 µM | 3.98 µM | 3.16 µM | 12.6 µM | > 100 µM | 3.16 µM | 3.98 µM | 5.01 µM | 15.8 µM | 6.31 µM | 6.31 µM | 31.6 µM | 3.16 µM |  | 0.316 µM | 12.6 µM | 39.8 µM | 20 µM | GI50 (RXF 393): 3.16 µM; TGI (HOP-92): 7.94 µM; GI50 (SR): 3.16 µM; GI50 (LOX IMVI): 1.58 µM; LC50 (LOX IMVI): 6.31 µM; TGI (LOX IMVI): 3.16 µM |

— ChEMBL document CHEMBL1140835, “Design, synthesis, and in vitro antitumor activity of new 1,4-diarylimidazole-2-ones and their 2-thione analogues” (2008)
